Patent publication US5591741A, “Fungicidal spiroheterocyclic derivatives” (American Cyanamid Company, priority 1993, dated 1997)

Key:
[1] = tested on: Pseudocercosporella herpotrichoides; assay: Activity against wheat eyespot in-vitro (PHI); assay type: cell-based; settings: 10 ppm, 10 days, 20° C., mycelial growth
How it was run: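 Mycelial growth was scored after 10 days at 20 °C against untreated or diluent controls. The broth was half-strength potato dextrose, holding 10 ppm test compound (from acetone) and 5×10^4 fragments/ml of the eyespot fungus.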

Phytophthora infestans = assay type: in vivo; settings: tomato, direct protectant foliar spray
Pyricularia oryzae = assay type: in vivo; settings: rice seedlings, direct therapeutic foliar spray, 600 ppm, 4-5 days
[2] = tested on: Erysiphe graminis f.sp. hordei; assay: Activity against barley powdery mildew, direct therapeutic (EGT); assay type: in vivo; settings: direct therapeutic foliar spray, 600 ppm, up to 7 days
How it was run: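 A curative spray at 600 ppm was applied to single-leaf Golden Promise barley inoculated with powdery mildew conidia the previous day. After up to 7 days at 18 °C and 40% humidity, disease control was rated from percent leaf area sporulating relative to untreated or diluent-sprayed controls.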

Alternaria solani = assay: Activity against tomato early blight (AS); assay type: in vivo; settings: Table VI; tomato seedlings, contact prophylactic foliar spray, 4 days
How it was run: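 Plants were challenged with A. solani conidia (10^4 spores/ml) 24 h after a protective foliar spray of compound in 50:50 acetone/water plus 0.04% Tween 20. Held humid at 21° C for 4 days, then percent leaf area with lesions was scored as a rating relative to controls.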

[3] = tested on: Erysiphe graminis f.sp. hordei; assay: Direct protectant activity against barley powdery mildew (EGP); assay type: in vivo; settings: direct protectant foliar spray, 8 days
How it was run: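 Rating reflects percentage of leaf area with sporulation compared with untreated or diluent-sprayed controls. Protectant spray was applied to single-leaf barley (cv Golden Promise) 24 h before conidia inoculation. Plants were kept at 18 °C and 40% RH throughout, with 8 days of disease development.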

Plasmopara viticola = assay: Antisporulant activity against vine downy mildew (PVA); assay type: in vivo; settings: vine leaves, antisporulant foliar spray, 600 ppm, 750 l/ha
How it was run: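 Cabernet Sauvignon vines (~8 cm) inoculated on lower leaf surfaces with 5×10^4 zoosporangia/ml, held 24 h at 21° C high humidity then 24 h glasshouse. Infected leaves sprayed underside with 600 ppm compound in 1:1 water/acetone, 0.04% Tween 20, 750 l/ha; 96 h glasshouse, 24 h humidity. Sporulating leaf area rated versus control.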

Venturia inaequalis = assay: Activity against apple scab in-vitro (VII); assay type: cell-based; settings: 10 ppm, 10 days, 20° C., mycelial growth
How it was run: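 V. inaequalis propagules (5×10^4/ml, malt agar-grown) were exposed in half-strength PDB to 10 ppm final test compound delivered in acetone. Growth was scored after incubation for 10 days at 20° C, as a rating relative to untreated or diluent-sprayed controls.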

Rhizoctonia solani = assay: Activity against Rhizoctonia in-vitro (RSI); assay type: cell-based; settings: 10 ppm, 10 days, 20° C., mycelial growth
How it was run: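 Compound at a final 10 ppm (acetone vehicle) in half-strength PDB, inoculated with 5×10^4 fragments/ml of shaken-culture R. solani mycelium. After incubation at 20° C for 10 days, growth scored as a rating versus untreated or diluent-treated controls.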

Botrytis cinerea = assay: Direct protectant activity against broad bean grey mould (BCB); assay type: in vivo; settings: direct protectant foliar spray, 600 ppm, 4 days
How it was run: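 Protectant foliar test: lesion coverage assessed 4 days after inoculation and rated relative to untreated or diluent-sprayed plants. Compound applied at 600 ppm to cv The Sutton leaves 24 h before 10^6 conidia/ml suspension; incubation at 22 °C in high humidity.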

Leptosphaeria nodorum = assay: Activity against wheat leafspot (LN); assay type: in vivo; settings: direct therapeutic foliar spray, 600 ppm, 6-8 days
How it was run: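 Therapeutic foliar spray: compound at 600 ppm applied to single-leaf wheat (cv Norman) 24 h after inoculation with 1.5×10^6 conidia/ml. Disease control scored after 6-8 days at 22° C and 70% humidity as lesions per leaf versus untreated or diluent-sprayed controls.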

| Compound | disease control rating PHI [1] | disease control rating PIP (Phytophthora infestans) | disease control rating PO (Pyricularia oryzae) | disease control rating EGT [2] | disease control rating AS (Alternaria solani) | disease control rating EGP [3] | disease control rating PVA (Plasmopara viticola) | disease control rating VII (Venturia inaequalis) | disease control rating RSI (Rhizoctonia solani) | disease control rating BCB (Botrytis cinerea) | disease control rating LN (Leptosphaeria nodorum) |
| --- | --- | --- | --- | --- | --- | --- | --- | --- | --- | --- | --- |
| CCCCCCN(C)C1COC2(CCCCC2)C1 (centres unmarked) [Compound 59] | 0 (less than 50% disease control) | 0 (less than 50% disease control) | 0 (less than 50% disease control) | 2 (greater than 80% disease control) | 0 (less than 50% disease control) | 2 (greater than 80% disease control) | 0 (less than 50% disease control) | 0 (less than 50% disease control) | 0 (less than 50% disease control) | 0 (less than 50% disease control) | 0 (less than 50% disease control) |
| CCCN(CCC)C1COC2(CCC(C(C)(C)C)CC2)C1 (centres unmarked) [Compound 13] | 0 (less than 50% disease control) | 0 (less than 50% disease control) | 0 (less than 50% disease control) | 2 (greater than 80% disease control) | 0 (less than 50% disease control) | 2 (greater than 80% disease control) | 0 (less than 50% disease control) | 2 (greater than 80% disease control) | 0 (less than 50% disease control) | 0 (less than 50% disease control) | 0 (less than 50% disease control) |
| CC(C)CN(C)C1COC2(CCC(C(C)(C)C)CC2)C1 (centres unmarked) [Compound 121] | 0 (less than 50% disease control) | 0 (less than 50% disease control) | 0 (less than 50% disease control) | 2 (greater than 80% disease control) | 0 (less than 50% disease control) | 2 (greater than 80% disease control) | 0 (less than 50% disease control) | 0 (less than 50% disease control) | 0 (less than 50% disease control) | 0 (less than 50% disease control) | 0 (less than 50% disease control) |
| CC(C)(C)C1CCC2(CC1)CC(CCN)CO2.Cl (centres unmarked) [Compound 190, 8-t-butyl-3-aminoethyl-1-oxaspiro(4,5)decane hydrochloride] | 0 (less than 50% disease control) | 2 (greater than 80% disease control) | 0 (less than 50% disease control) | 0 (less than 50% disease control) | 0 (less than 50% disease control) | 1 (about 50-80% disease control) | 1 (about 50-80% disease control) | 0 (less than 50% disease control) | 0 (less than 50% disease control) | 0 (less than 50% disease control) | 0 (less than 50% disease control) |
| CN(CC1(C)CCCCC1)C1COC2(CCC(C(C)(C)C)CC2)C1 (centres unmarked) [Compound 125] | 1 (about 50-80% disease control) | 0 (less than 50% disease control) | 0 (less than 50% disease control) | 2 (greater than 80% disease control) | 0 (less than 50% disease control) | 2 (greater than 80% disease control) | 0 (less than 50% disease control) | 1 (about 50-80% disease control) | 0 (less than 50% disease control) | 0 (less than 50% disease control) | 0 (less than 50% disease control) |
| CCN(CC)C1COC2(CCC(C(C)(C)C)CC2)C1 (centres unmarked) [Compound 68] | 0 (less than 50% disease control) | 0 (less than 50% disease control) | 1 (about 50-80% disease control) | 2 (greater than 80% disease control) | 0 (less than 50% disease control) | 2 (greater than 80% disease control) | 0 (less than 50% disease control) | 1 (about 50-80% disease control) | 0 (less than 50% disease control) | 0 (less than 50% disease control) | 0 (less than 50% disease control) |
| C=CCN(CC=C)C1COC2(CCC(C(C)(C)C)CC2)C1 (centres unmarked) [Compound 103] | 0 (less than 50% disease control) | 2 (greater than 80% disease control) | 0 (less than 50% disease control) | 2 (greater than 80% disease control) | 0 (less than 50% disease control) | 2 (greater than 80% disease control) | 0 (less than 50% disease control) | 1 (about 50-80% disease control) | 0 (less than 50% disease control) | 2 (greater than 80% disease control) | 0 (less than 50% disease control) |
| CC1CC(C)CN(C2COC3(CCC(c4ccccc4)CC3)C2)C1 (centres unmarked) [Compound 57] | 0 (less than 50% disease control) | 0 (less than 50% disease control) | 0 (less than 50% disease control) | 2 (greater than 80% disease control) | 0 (less than 50% disease control) | 2 (greater than 80% disease control) | 0 (less than 50% disease control) | 1 (about 50-80% disease control) | 0 (less than 50% disease control) | 0 (less than 50% disease control) | 1 (about 50-80% disease control) |
| CCCCCCN(C)C1COC2(CCC(C(C)(C)C3CCCCC3)CC2)C1 (centres unmarked) [Compound 140] | 2 (greater than 80% disease control) | 0 (less than 50% disease control) | 0 (less than 50% disease control) | 2 (greater than 80% disease control) | 0 (less than 50% disease control) | 2 (greater than 80% disease control) | 0 (less than 50% disease control) | 2 (greater than 80% disease control) | 2 (greater than 80% disease control) | 0 (less than 50% disease control) | 1 (about 50-80% disease control) |
| CC(C)(C)C1CCC2(CC1)CC(NCc1ccc(Br)cc1)CO2 (centres unmarked) [Compound 29] | 0 (less than 50% disease control) | 0 (less than 50% disease control) | 0 (less than 50% disease control) | 2 (greater than 80% disease control) | 0 (less than 50% disease control) | 2 (greater than 80% disease control) | 0 (less than 50% disease control) | 2 (greater than 80% disease control) | 0 (less than 50% disease control) | 0 (less than 50% disease control) | 0 (less than 50% disease control) |
